{"source": "patent US20100331233A1", "about": "“CRYSTAL OF XPA AND ERCC1 COMPLEX AND USES THEREOF” (priority 2007, published 2010)", "biological_target": "T1, central domain of ERCC1 (ERCC196-214) (Homo sapiens, UniProt P07992)", "T1 construct": "His6 (N); made in house; host or cells: E. coli BL21(DE3)", "T1 sequence (P07992 96-214)": "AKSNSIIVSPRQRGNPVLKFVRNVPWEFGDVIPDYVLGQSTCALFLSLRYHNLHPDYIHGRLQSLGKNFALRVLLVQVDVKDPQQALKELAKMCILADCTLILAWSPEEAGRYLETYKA", "experiment": "Competitive binding equilibrium titrations, fluorescence anisotropy of 6FAM-labeled single-stranded 40mer DNA", "procedure": "Binding of a 6FAM-labeled single-stranded DNA 40mer to the central domain of ERCC1 was monitored by fluorescence polarization of the labeled DNA. DNA binding activity is plotted as a function of added XPA67-80 inhibitor. The theoretical curve given by Eq. 9 (solid line) corresponds to the best fit of the data to the dissociation equilibrium constant of 300 nM for the ERCC1-XPA complex.\nCompetitive binding equilibrium titrations. The equilibrium titrations were performed in a binding buffer containing 20 mM Tris, pH 8.0, 20 mM NaCl, 2 mM betamercaptoethanol. The concentrations of single-stranded 5′ 6-FAM-labeled DNA (5′-CCGGTGGCCAGCGCTCGGCG(T)20; SEQ ID NO:9) and ERCC196-214 were 50 nM and 2.33 μM, respectively, the concentration of the XPA peptide was varied from 0 to 30 μM (FIG. 7). Fluorescence anisotropy measurements were performed as previously reported (Tsodikov et al., 2005). Increasing XPA peptide concentration above 30 μM caused an increase in fluorescence anisotropy and quenching of fluorescence due to nonspecific interactions with the peptide, observed in the presence or absence of ERCC1 (data not shown).\nThe simplest binding model used in the data analysis consisted of two competitive equilibria, binding of XPA peptide and of the single-stranded 6FAM-labeled 40-mer DNA to the central domain of ERCC1. This model is consistent with the fact that at sufficiently high XPA concentration, the fluorescence anisotropy signal approaches that of unbound DNA. Therefore the two binding equilibria could be written as:\nwhere E, D, X represent the ERCC1, DNA and XPA species, respectively. ED and EX represent ERCC1-DNA and ERCC1-XPA complexes, and KDNA and KXPA are the observed equilibrium association constants, defined in terms of the equilibrium concentrations of the species from Eqs. (2a) and (2b) as:\nThe approximation made in Equation (4b) is due to the large excess of ERCC1 over DNA at the experimental conditions. It was assumed that each single-stranded 40-mer DNA oligonucleotide contains only one binding site for ERCC1. Because the central domain of ERCC1 occludes 10-15 nucleotides upon binding DNA (1), with a reasonable approximation, a maximum of 2-3 ERCC1 molecules could simultaneously bind to one DNA molecule without significant cooperativity. In this analysis, a value of (KDNA)−1=1.5 μM was used, obtained from the direct titration of ERCC1 at constant concentration (50 nM) of the same DNA oligomer, using the same single site approximation (1). Therefore the value of the equilibrium binding constant for XPA-ERCC1 complex formation, KXPA, should be unaffected by the stoichiometry of ERCC1-DNA binding.\nThe system of Eqs. 4a, 4b and 4c yields expressions for [E], [X] and [D], which are then used to determined the fraction of bound DNA species, f, as follows:\nThe observed fluorescence anisotropy, r, is then given by\nwhere r0 and rmax are fluorescent anisotropy values of unbound and fully bound DNA, respectively. […]\nXPA competes with single-stranded DNA for binding to ERCC1. Because XPA binds in the groove on ERCC1 (FIG. 2) that was previously implicated in DNA binding activity (Tsodikov et al., 2005), it was determined whether or not XPA competes with single-stranded DNA for binding to ERCC1. DNA binding activity was measured by monitoring fluorescence anisotropy, using single-stranded 40mer oligonucleotide labeled on the 5′ end with 6-carboxyfluorescein. […]", "note": "“Also recorded” adds a separate entry of the source. No end group written: not given here."}
{"sequence": "KIIDTGGGFILEEE [XPA67-80]", "values": [{"measurement": "affinity for central domain of ERCC1 relative to single stranded DNA", "value": "approximately 3 fold"}, {"measurement": "Kd", "setting": "best fit of competition titration to Eq. 9, 50 nM DNA, 2.33 μM ERCC196-214, read-out: dissociation equilibrium constant (Kd) of the XPA-ERCC1 complex", "value": 300, "unit": "nM"}, {"measurement": "EC50 for binding of XPA67-80", "setting": "competition with 6FAM single-stranded 40mer DNA, accurate measurement precluded by quenching", "value": "in the micromolar range"}, {"measurement": "competition with single-stranded DNA for binding to ERCC1", "setting": "fluorescence anisotropy / polarization", "value": "does compete with DNA for binding to ERCC1; also recorded: competitive inhibitor"}, {"measurement": "binding of peptide to DNA", "setting": "single-stranded 40mer, fluorescence anisotropy", "value": "does not detectably bind to DNA"}]}
